Assay results published in patent publication US20250281424A1 (New York Blood Center, Inc, priority 2020, published 2025).

Biological target: T1, human PF4 (Homo sapiens, UniProt P02776)
T1 construct: PF4 is a 70 amino acid, lysine-rich 7.8 kDa platelet-specific protein; made in house; host or cells: Escherichia coli BL21DE3 pLysS (pT7-7) and/or Drosophila S2 cells
T1 sequence (P02776 32-101): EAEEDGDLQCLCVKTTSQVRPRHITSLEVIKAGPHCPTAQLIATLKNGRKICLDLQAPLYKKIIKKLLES
Test: Inhibition of PF4 tetramer formation (BS3 cross-linking, SDS-PAGE)
Format: biochemical
Details: for inhibition at 5 µM: 5 μM inhibitor; for inhibition at 5 µM / inhibition at 10 µM / inhibition at 1 µM / inhibition at 3 µM: read-out: % inhibition of PF4 tetramer formation at single concentration of inhibitor; for inhibition at 10 µM: 10 μM inhibitor (column A); for IC50: read-out: IC50 of PF4 tetramer formation inhibition; for inhibition at 1 µM: 1 μM inhibitor; for inhibition at 3 µM: 3 μM inhibitor (column A)
Procedure, shortened: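 Monomer, dimer, trimer and tetramer fractions were quantified by densitometry after reducing 12% SDS-PAGE of BS3-cross-linked (0.2 mM, 30 min, room temperature) PF4. Before cross-linking, 10 μg/ml E. coli-expressed human WT PF4 in PBS was exposed to compound for 15 min at 37° C or 60 min at room temperature; controls lacked compound.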

| Compound | inhibition at 5 µM [%] | inhibition at 10 µM [%] | IC50 [nM] | inhibition at 1 µM [%] | inhibition at 3 µM [%] |
| --- | --- | --- | --- | --- | --- |
| C[C@H]1C[C@@H](C(=O)C2C(=O)c3ccc(S(=O)(=O)c4ccc5c(c4)C(=O)C(C(=O)[C@@H]4C[C@H](C)CN4C(=O)OC(C)(C)C)C5=O)cc3C2=O)N(C(=O)OC(C)(C)C)C1 (stereo partly drawn) [Example 224, tert-butyl (2S,4S)-2-[5-({2-[(2S,4S)-1-[(tert-butoxy)carbonyl]-4-methylpyrrolidine-2-carbonyl]-1,3-dioxo-2,3-dihydro-1H-inden-5-yl}sulfonyl)-1,3-dioxo-2,3-dihydro-1H-indene-2-carbonyl]-4-methylpyrrolidine-1-carboxylate] | 100 | 95 | 2200 | – | – |
| COC(=O)CCCC(=O)C1C(=O)c2ccc(C(=O)c3ccc4c(c3)C(=O)C(C(=O)CCCC(=O)OC)C4=O)cc2C1=O (stereo not shown) [Example 225, methyl 5-{5-[2-(5-methoxy-5-oxopentanoyl)-1,3-dioxo-2,3-dihydro-1H-indene-5-carbonyl]-1,3-dioxo-2,3-dihydro-1H-inden-2-yl}-5-oxopentanoate] | 87 | 90 | 3200 | – | – |
| COC(=O)CCCC(=O)C1C(=O)c2ccc(-c3ccc4c(c3)C(=O)C(C(=O)CCCC(=O)OC)C4=O)cc2C1=O (stereo not shown) [Example 226, methyl 5-[2′-(5-methoxy-5-oxopentanoyl)-1,1′,3,3′-tetraoxo-1H,1′H,2H,2′H,3H,3′H-[5,5′-biinden]-2-yl]-5-oxopentanoate] | 77 | 92 | 4000 | – | – |
| O=C(O)CCCC(=O)C1C(=O)c2ccc(-c3ccc4c(c3)C(=O)C(C(=O)CCCC(=O)O)C4=O)cc2C1=O (stereo not shown) [Example 227, 5-[2′-(4-carboxybutanoyl)-1,1′,3,3′-tetraoxo-1H,1′H,2H, 2′H,3H,3′H-[5,5′-biinden]-2-yi]-5-oxopentanoic acid] | – | – | 1800 | – | – |
| CC(C)(C)OC(=O)NCC(=O)C1C(=O)c2ccc(C(c3ccc4c(c3)C(=O)C(C(=O)CNC(=O)OC(C)(C)C)C4=O)(C(F)(F)F)C(F)(F)F)cc2C1=O (stereo not shown) [Example 228, tert-butyl N-[2-(5-{2-[2-(2-{[(tert-butoxy)carbonyl]amino}acetyl)-1,3-dioxo-2,3-dihydro-1H-inden-5-yl]-1,1,1,3,3,3-hexafluoropropan-2-yl}-1,3-dioxo-2,3-dihydro-1H-inden-2-yl)-2-oxoethyl]carbamate] | – | – | 2800 | – | – |
| CCOCC(=O)C1C(=O)c2ccc(C(=O)c3ccc4c(c3)C(=O)C(C(=O)COCC)C4=O)cc2C1=O (stereo not shown) [Example 229, 2-(2-ethoxyacetyl)-5-[2-(2-ethoxyacetyl)-1,3-dioxo-2,3-dihydro-1H-indene-5-carbonyl]-2,3-dihydro-1H-indene-1,3-dione] | – | – | – | 43 | 53 |
| COC(=O)CCC(=O)C1C(=O)c2ccc(C(=O)c3ccc4c(c3)C(=O)C(C(=O)CCC(=O)OC)C4=O)cc2C1=O (stereo not shown) [Example 230, methyl 4-{5-[2-(4-methoxy-4-oxobutanoyl)-1,3-dioxo-2,3-dihydro-1H-indene-5-carbonyl]-1,3-dioxo-2,3-dihydro-1H-inden-2-yl}-4-oxobutanoate] | – | – | – | 1 | 24 |
| CC(C)(C)OCC(=O)C1C(=O)c2ccc(S(=O)(=O)c3ccc4c(c3)C(=O)C(C(=O)COC(C)(C)C)C4=O)cc2C1=O (stereo not shown) [Example 231, 2-[2-(tert-butoxy)acetyl]-5-({2-[2-(tert-butoxy)acetyl]-1,3-dioxo-2,3-dihydro-1H-inden-5-yl}sulfonyl)-2,3-dihydro-1H-indene-1,3-dione] | – | – | 1710 | 69 | 65 |
| O=C(COC1CCCCC1)C1C(=O)c2ccc(S(=O)(=O)c3ccc4c(c3)C(=O)C(C(=O)COC3CCCCC3)C4=O)cc2C1=O (stereo not shown) [Example 232, 2-[2-(cyclohexyloxy)acetyl]-5-({2-[2-(cyclohexyloxy)acetyl]-1,3-dioxo-2,3-dihydro-1H-inden-5-yl}sulfonyl)-2,3-dihydro-1H-indene-1,3-dione] | – | – | – | 10 | 67 |
| CC(C)(C)OC(=O)N1CCOC(C(=O)C2C(=O)c3ccc(S(=O)(=O)c4ccc5c(c4)C(=O)C(C(=O)C4CN(C(=O)OC(C)(C)C)CCO4)C5=O)cc3C2=O)C1 (stereo not shown) [Example 233] | – | – | – | 1 | 3 |
| COCC(=O)C1C(=O)c2ccc(C(=O)c3ccc4c(c3)C(=O)C(C(=O)COC)C4=O)cc2C1=O (stereo not shown) [Example 234, 2-(2-methoxyacetyl)-5-[2-(2-methoxyacetyl)-1,3-dioxo-2,3-dihydro-1H-indene-5-carbonyl]-2,3-dihydro-1H-indene-1,3-dione] | – | – | 1510 | 21 | 72 |
| CC(C)(C)OCC(=O)C1C(=O)c2ccc(C(=O)c3ccc4c(c3)C(=O)C(C(=O)COC(C)(C)C)C4=O)cc2C1=O (stereo not shown) [Example 235, 2-[2-(tert-butoxy)acetyl]-5-{2-[2-(tert-butoxy)acetyl]-1,3-dioxo-2,3-dihydro-1H-indene-5-carbonyl}-2,3-dihydro-1H-indene-1,3-dione] | – | – | – | 11 | 29 |
| CO[C@@H](C)C(=O)C1C(=O)c2ccc(C(=O)c3ccc4c(c3)C(=O)C(C(=O)[C@H](C)OC)C4=O)cc2C1=O (stereo partly drawn) [Example 236, 2-[(2S)-2-methoxypropanoyl]-5-{2-[(2S)-2-methoxypropanoyl]-1,3-dioxo-2,3-dihydro-1H-indene-5-carbonyl}-2,3-dihydro-1H-indene-1,3-dione] | – | – | – | 20 | 25 |
| CO[C@@H](C)C(=O)C1C(=O)c2ccc(S(=O)(=O)c3ccc4c(c3)C(=O)C(C(=O)[C@@H](C)OC)C4=O)cc2C1=O (stereo partly drawn) [Example 237, 2-[(2R)-2-methoxypropanoyl]-5-({2-[(2S)-2-methoxypropanoyl]-1,3-dioxo-2,3-dihydro-1H-inden-5-yl}sulfonyl)-2,3-dihydro-1H-indene-1,3-dione] | – | – | – | 30 | 37 |
| O=C(c1ccc2c(c1)C(=O)C(C(=O)Cc1cccnc1)C2=O)c1ccc2c(c1)C(=O)C(C(=O)Cc1cccnc1)C2=O (stereo not shown) [Example 238, 5-{1,3-dioxo-2-[2-(pyridin-3-yl)acetyl]-2,3-dihydro-1H-indene-5-carbonyl}-2-[2-(pyridin-3-yl)acetyl]-2,3-dihydro-1H-indene-1,3-dione] | – | – | – | 7 | 100 |
| O=C(c1ccc2c(c1)C(=O)C(C(=O)Cc1ccncc1)C2=O)c1ccc2c(c1)C(=O)C(C(=O)Cc1ccncc1)C2=O (stereo not shown) [Example 239, 5-{1,3-dioxo-2-[2-(pyridin-4-yl)acetyl]-2,3-dihydro-1H-indene-5-carbonyl}-2-[2-(pyridin-4-yl)acetyl]-2,3-dihydro-1H-indene-1,3-dione] | – | – | – | – | 100 |
| CC(C)(C)OC(=O)N1CCOC(C(=O)C2C(=O)c3ccc(C(=O)c4ccc5c(c4)C(=O)C(C(=O)C4CN(C(=O)OC(C)(C)C)CCO4)C5=O)cc3C2=O)C1 (stereo not shown) [Example 240, tert-butyl 2-[5-(2-{4-[(tert-butoxy)carbonyl]morpholine-2-carbonyl}-1,3-dioxo-2,3-dihydro-1H-indene-5-carbonyl)-1,3-dioxo-2,3-dihydro-1H-indene-2-carbonyl]morpholine-4-carboxylate] | – | – | – | 14 | 32 |
| O=C(c1ccnc(-c2ccccc2)c1)C1C(=O)c2ccc(S(=O)(=O)c3ccc4c(c3)C(=O)C(C(=O)c3ccnc(-c5ccccc5)c3)C4=O)cc2C1=O (stereo not shown) [Example 241, 5-{[1,3-dioxo-2-(2-phenylpyridine-4-carbonyl)-2,3-dihydro-1H-inden-5-yl]sulfonyl}-2-(2-phenylpyridine-4-carbonyl)-2,3-dihydro-1H-indene-1,3-dione] | – | – | – | 14 | 29 |
| CC(C(=O)C1C(=O)c2ccc(C(=O)c3ccc4c(c3)C(=O)C(C(=O)C(C)c3ccc(F)cc3)C4=O)cc2C1=O)c1ccc(F)cc1 (stereo not shown) [Example 242, 2-[2-(4-fluorophenyl)propanoyl]-5-{2-[2-(4-fluorophenyl)propanoyl]-1,3-dioxo-2,3-dihydro-1H-indene-5-carbonyl}-2,3-dihydro-1H-indene-1,3-dione] | – | – | – | 13 | 31 |
| CC(C(=O)C1C(=O)c2ccc(S(=O)(=O)c3ccc4c(c3)C(=O)C(C(=O)C(C)c3ccc(F)cc3)C4=O)cc2C1=O)c1ccc(F)cc1 (stereo not shown) [Example 243, 2-[2-(4-fluorophenyl)propanoyl]-5-({2-[2-(4-fluorophenyl)propanoyl]-1,3-dioxo-2,3-dihydro-1H-inden-5-yl}sulfonyl)-2,3-dihydro-1H-indene-1,3-dione] | – | – | – | 19 | 21 |
| O=C(c1ccc2c(c1)C(=O)C(Br)C2=O)c1ccc2c(c1)C(=O)C(Br)C2=O (stereo not shown) [Example 244, 2-bromo-5-(2-bromo-1,3-dioxo-2,3-dihydro-1H-indene-5-carbonyl)-2,3-dihydro-1H-indene-1,3-dione] | – | – | – | 21 | 43 |
| O=C(O)CCC(=O)C1C(=O)c2ccc(Oc3ccc4c(c3)C(=O)C(C(=O)CCC(=O)O)C4=O)cc2C1=O (stereo not shown) [Example 245, 4-(5-{[2-(3-carboxypropanoyl)-1,3-dioxo-2,3-dihydro-1H-inden-5-yl]oxy}-1,3-dioxo-2,3-dihydro-1H-inden-2-yl)-4-oxobutanoic acid] | – | – | – | 27 | 47 |
